In patent US11384055B2 (BIOMARIN PHARMACEUTICAL INC., priority 2017, dated 2022):
pIC50: −log10 of the molar value.

target: T1, Human GO (Homo sapiens, UniProt Q9UJM8); test: GO enzymatic assay (coupled fluorescence/HRP assay, glycolate substrate); type: biochemical; conditions: not given
T1 construct: purchased Novus Biologicals NBP1-72412
T1 sequence (Q9UJM8 1-370): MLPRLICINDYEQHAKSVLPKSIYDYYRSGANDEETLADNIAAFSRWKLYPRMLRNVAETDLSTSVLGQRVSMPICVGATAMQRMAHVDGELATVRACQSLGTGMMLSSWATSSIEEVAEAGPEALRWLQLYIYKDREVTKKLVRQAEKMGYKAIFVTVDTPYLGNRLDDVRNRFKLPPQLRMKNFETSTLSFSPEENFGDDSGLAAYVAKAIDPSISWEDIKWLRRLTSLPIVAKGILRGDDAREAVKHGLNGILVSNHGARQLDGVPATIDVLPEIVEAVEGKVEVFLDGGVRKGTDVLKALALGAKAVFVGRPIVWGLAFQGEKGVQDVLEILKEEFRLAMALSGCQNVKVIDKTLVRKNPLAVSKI
Outline: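 Coupled HRP/fluorescence read-out of glycolate oxidation by human GO in 50 mM potassium phosphate buffer (pH 7). Inhibitors added across a concentration range.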

For `O=C(O)c1[nH]nnc1Oc1ccc(C2CCCCC2)cc1` [Compound 273, 4-(4-cyclohexylphenoxy)-1H-1,2,3-triazole-5-carboxylic acid], the pIC50 was greater than 7.00.

same assay, conditions: Table 2; read-out: Range (range of IC50 values calculated from the enzymatic assays)

`O=C(O)c1[nH]nnc1OC1Cc2cc(Cl)c(Cl)cc2C1` [Compound 241, 4-((5,6-dichloro-2,3-dihydro-1H-inden-2-yl)oxy)-1H-1,2,3-triazole-5-carboxylic acid 2,2,2-trifluoroacetate] and `O=C(O)c1[nH]nnc1OC1Cc2cc(F)c(F)cc2C1` [Compound 271, 4-((5,6-difluoro-2,3-dihydro-1H-inden-2-yl)oxy)-1H-1,2,3-triazole-5-carboxylic acid] cannot be ordered by pIC50: greater than 7.00 for the first, greater than 7.00 for the second.

`O=C(O)c1[nH]nnc1Oc1ccc(-c2ccc(C3CCOCC3)cc2)cc1` [Compound 242, 4-((4′-(tetrahydro-2H-pyran-4-yl)-[1,1′-biphenyl]-4-yl)oxy)-1H-1,2,3-triazole-5-carboxylic acid] and `O=C(O)c1[nH]nnc1Oc1ccc(C2CCOCC2)cc1` [Compound 263, 4-(4-(tetrahydro-2H-pyran-4-yl)phenoxy)-1H-1,2,3-triazole-5-carboxylic acid 2,2,2-trifluoroacetate] cannot be ordered by pIC50: greater than 7.00 for the first, greater than 7.00 for the second.

`O=C(O)c1[nH]nnc1CSc1ccc(Cl)c(Cl)c1` [Compound 243, 4-(((3,4-dichlorophenyl)thio)methyl)-1H-1,2,3-triazole-5-carboxylic acid] and `O=C(O)c1[nH]nnc1COc1ccc(Cl)c(Cl)c1` [Compound 264, 4-((3,4-dichlorophenoxy)methyl)-1H-1,2,3-triazole-5-carboxylic acid 2,2,2-trifluoroacetate] cannot be ordered by pIC50: greater than 7.00 for the first, greater than 7.00 for the second.

`CC(C)C(=O)OCOC(=O)c1[nH]nnc1Sc1ccc(-c2ccc(N3CCCCC3)cc2)cc1` [Compound 244, (isobutyryloxy)methyl 4-((4′-(piperidin-1-yl)-[1,1′-biphenyl]-4-yl)thio)-1H-1,2,3-triazole-5-carboxylate] and `O=C(OCOC(=O)c1[nH]nnc1Sc1ccc(-c2ccc(N3CCCCC3)cc2)cc1)c1ccccc1` [Compound 278, (benzoyloxy)methyl 4-((4′-(piperidin-1-yl)-[1,1′-biphenyl]-4-yl)thio)-1H-1,2,3-triazole-5-carboxylate] fall in the same range of pIC50: 5.00 to 6.00 for the first, 5.00 to 6.00 for the second.

Compared with `CC(C)N1CCCc2ccc(Oc3nn[nH]c3C(=O)O)cc21` [Compound 245, 4-((1-isopropyl-1,2,3,4-tetrahydroquinolin-7-yl)oxy)-1H-1,2,3-triazole-5-carboxylic acid 2,2,2-trifluoroacetate], `CC(C)C(=O)OCOC(=O)c1[nH]nnc1Oc1ccc2c(c1)CCCC2` [Compound 252, (isobutyryloxy)methyl 4-((5,6,7,8-tetrahydronaphthalen-2-yl)oxy)-1H-1,2,3-triazole-5-carboxylate] is higher in pIC50: 5.00 to 6.00 for the first, 6.00 to 7.00 for the second. The second is the more potent here.

First: CN1CCN(c2cccc(-c3ccc(Oc4nn[nH]c4C(=O)O)cc3)c2)CC1 [Compound 246, 4-((3′-(4-methylpiperazin-1-yl)-[1,1′-biphenyl]-4-yl)oxy)-1H-1,2,3-triazole-5-carboxylic acid 2,2,2-trifluoroacetate]
Second: CC(=O)NCCOc1cccc(-c2ccc(Oc3nn[nH]c3C(=O)O)cc2)c1 [Compound 259, 4-((3′-(2-acetamidoethoxy)-[1,1′-biphenyl]-4-yl)oxy)-1H-1,2,3-triazole-5-carboxylic acid]
The pIC50 of the first is lower: 6.00 to 7.00 for the first, greater than 7.00 for the second. The second is the more potent here.

`O=C(O)c1[nH]nnc1Sc1ccc(-c2cccc(C3CCCCC3)c2)cc1` [Compound 247, 4-((3′-cyclohexyl-[1,1′-biphenyl]-4-yl)thio)-1H-1,2,3-triazole-5-carboxylic acid] and `O=C(O)c1[nH]nnc1Oc1ccc(-c2ccc3cccnc3c2)cc1` [Compound 250, 4-(4-(quinolin-7-yl)phenoxy)-1H-1,2,3-triazole-5-carboxylic acid 2,2,2-trifluoroacetate] cannot be ordered by pIC50: greater than 7.00 for the first, greater than 7.00 for the second.

`O=C(OCOC(=O)c1[nH]nnc1Oc1ccc2cc(Cl)ccc2c1)c1ccccc1` [Compound 249, (benzoyloxy)methyl 4-((6-chloronaphthalen-2-yl)oxy)-1H-1,2,3-triazole-5-carboxylate] and `CC(C)(C)C(=O)OCOC(=O)c1[nH]nnc1Oc1ccc2cc(Cl)ccc2c1` [Compound 251, (pivaloyloxy)methyl 4-((6-chloronaphthalen-2-yl)oxy)-1H-1,2,3-triazole-5-carboxylate] fall in the same range of pIC50: 5.00 to 6.00 for the first, 5.00 to 6.00 for the second.

`O=C(O)c1[nH]nnc1Oc1cccc(OC2CC2)c1` [Compound 253, 4-(3-cyclopropoxyphenoxy)-1H-1,2,3-triazole-5-carboxylic acid 2,2,2-trifluoroacetate] and `O=C(O)c1[nH]nnc1Oc1cccc(OCC2CC2)c1` [Compound 262, 4-(3-(cyclopropylmethoxy)phenoxy)-1H-1,2,3-triazole-5-carboxylic acid 2,2,2-trifluoroacetate] cannot be ordered by pIC50: greater than 7.00 for the first, greater than 7.00 for the second.

`O=C(O)c1[nH]nnc1Oc1ccc(Cl)c(OC(F)(F)F)c1` [Compound 254, 4-(4-chloro-3-(trifluoromethoxy)phenoxy)-1H-1,2,3-triazole-5-carboxylic acid] and `O=C(O)c1[nH]nnc1OCc1ccc(Cl)c(Cl)c1` [Compound 269, 4-((3,4-dichlorobenzyl)oxy)-1H-1,2,3-triazole-5-carboxylic acid] cannot be ordered by pIC50: greater than 7.00 for the first, greater than 7.00 for the second.

`CC(=O)NCCOc1ccc(-c2ccc(Oc3nn[nH]c3C(=O)O)cc2)cc1` [Compound 255, 4-((4′-(2-acetamidoethoxy)-[1,1′-biphenyl]-4-yl)oxy)-1H-1,2,3-triazole-5-carboxylic acid] and `O=C(O)c1[nH]nnc1COc1ccc(-c2ccc(OC(F)(F)F)cc2)cc1` [Compound 265, 4-(((4′-(trifluoromethoxy)-[1,1′-biphenyl]-4-yl)oxy)methyl)-1H-1,2,3-triazole-5-carboxylic acid] cannot be ordered by pIC50: greater than 7.00 for the first, greater than 7.00 for the second.

Compared with `CC(C)C(=O)OCOC(=O)c1[nH]nnc1OC1CCc2cc(Cl)c(Cl)cc2C1` (stereo not shown) [Compound 256, (isobutyryloxy)methyl 4-((6,7-dichloro-1,2,3,4-tetrahydronaphthalen-2-yl)oxy)-1H-1,2,3-triazole-5-carboxylate], `CCC(=O)OCOC(=O)c1[nH]nnc1OC1CCc2cc(Cl)c(Cl)cc2C1` (stereo not shown) [Compound 267, (propionyloxy)methyl 4-((6,7-dichloro-1,2,3,4-tetrahydronaphthalen-2-yl)oxy)-1H-1,2,3-triazole-5-carboxylate] is higher in pIC50: 6.00 to 7.00 for the first, greater than 7.00 for the second. The second is the more potent here.

`O=C(O)c1[nH]nnc1Oc1ccc(-c2ccc3cnccc3c2)cc1` [Compound 257, 4-(4-(isoquinolin-6-yl)phenoxy)-1H-1,2,3-triazole-5-carboxylic acid] and `O=C(O)c1[nH]nnc1COc1ccc(-c2ccc(Cl)c(Cl)c2)cc1` [Compound 266, 4-(((3′,4′-dichloro-[1,1′-biphenyl]-4-yl)oxy)methyl)-1H-1,2,3-triazole-5-carboxylic acid 2,2,2-trifluoroacetate] cannot be ordered by pIC50: greater than 7.00 for the first, greater than 7.00 for the second.

`CC(C)(C)C(=O)OCOC(=O)c1[nH]nnc1OC1CCc2cc(Cl)c(Cl)cc2C1` (stereo not shown) [Compound 258, (pivaloyloxy)methyl 4-((6,7-dichloro-1,2,3,4-tetrahydronaphthalen-2-yl)oxy)-1H-1,2,3-triazole-5-carboxylate] and `O=C(OCOC(=O)c1[nH]nnc1OC1CCc2cc(Cl)c(Cl)cc2C1)c1ccccc1` (stereo not shown) [Compound 261, (benzoyloxy)methyl 4-((6,7-dichloro-1,2,3,4-tetrahydronaphthalen-2-yl)oxy)-1H-1,2,3-triazole-5-carboxylate] fall in the same range of pIC50: 5.00 to 6.00 for the first, 5.00 to 6.00 for the second.

First: O=C(O)c1[nH]nnc1OC1CCN(c2ccc3cnccc3c2)CC1 [Compound 260, 4-((1-(isoquinolin-6-yl)piperidin-4-yl)oxy)-1H-1,2,3-triazole-5-carboxylic acid 2,2,2-trifluoroacetate]
Second: O=C(O)c1[nH]nnc1OC1CCN(c2ccc(Cl)cc2)CC1 [Compound 270, 4-((1-(4-chlorophenyl)piperidin-4-yl)oxy)-1H-1,2,3-triazole-5-carboxylic acid 2,2,2-trifluoroacetate]
The pIC50 of the first is lower: 6.00 to 7.00 for the first, greater than 7.00 for the second. The second is the more potent here.

`O=C(O)c1[nH]nnc1Oc1ccc(C2CC(F)(F)C2)cc1` [Compound 268, 4-(4-(3,3-difluorocyclobutyl)phenoxy)-1H-1,2,3-triazole-5-carboxylic acid] and `O=C(O)c1[nH]nnc1Oc1ccc(C2CCC(F)(F)CC2)cc1` [Compound 279, 4-(4-(4,4-difluorocyclohexyl)phenoxy)-1H-1,2,3-triazole-5-carboxylic acid] cannot be ordered by pIC50: greater than 7.00 for the first, greater than 7.00 for the second.

`O=C(O)c1[nH]nnc1OCc1ccc(-c2ccc(OC(F)(F)F)cc2)cc1` [Compound 274, 4-((4′-(trifluoromethoxy)-[1,1′-biphenyl]-4-yl)methoxy)-1H-1,2,3-triazole-5-carboxylic acid] and `O=C(O)c1[nH]nnc1OC1CCC(c2ccc(OC(F)(F)F)cc2)C1` (stereo not shown) [Compound 275, 4-((3-(4-(trifluoromethoxy)phenyl)cyclopentyl)oxy)-1H-1,2,3-triazole-5-carboxylic acid] cannot be ordered by pIC50: greater than 7.00 for the first, greater than 7.00 for the second.

`O=C(O)c1[nH]nnc1SC1CCc2cc(Cl)c(Cl)cc2C1` (stereo not shown) [Compound 277, 4-((6,7-dichloro-1,2,3,4-tetrahydronaphthalen-2-yl)thio)-1H-1,2,3-triazole-5-carboxylic acid] and `O=C(O)c1[nH]nnc1OC1CCC2(CC1)CC2` [Compound 280, 4-(spiro[2.5]octan-6-yloxy)-1H-1,2,3-triazole-5-carboxylic acid 2,2,2-trifluoroacetate] cannot be ordered by pIC50: greater than 7.00 for the first, greater than 7.00 for the second.
